Results on 44 compounds are retold here after ChEMBL document CHEMBL1140913, “Discovery and structure-activity relationships of trisubstituted pyrimidines/pyridines as novel calcium-sensing receptor antagonists” (J Med Chem, 2009).

≈ marks a conversion by molar mass, not a printed value. Some results are limits rather than exact numbers.

The target in one data set is T1, Extracellular calcium-sensing receptor (Homo sapiens, UniProt P41180).
T1 sequence (P41180 whole entry): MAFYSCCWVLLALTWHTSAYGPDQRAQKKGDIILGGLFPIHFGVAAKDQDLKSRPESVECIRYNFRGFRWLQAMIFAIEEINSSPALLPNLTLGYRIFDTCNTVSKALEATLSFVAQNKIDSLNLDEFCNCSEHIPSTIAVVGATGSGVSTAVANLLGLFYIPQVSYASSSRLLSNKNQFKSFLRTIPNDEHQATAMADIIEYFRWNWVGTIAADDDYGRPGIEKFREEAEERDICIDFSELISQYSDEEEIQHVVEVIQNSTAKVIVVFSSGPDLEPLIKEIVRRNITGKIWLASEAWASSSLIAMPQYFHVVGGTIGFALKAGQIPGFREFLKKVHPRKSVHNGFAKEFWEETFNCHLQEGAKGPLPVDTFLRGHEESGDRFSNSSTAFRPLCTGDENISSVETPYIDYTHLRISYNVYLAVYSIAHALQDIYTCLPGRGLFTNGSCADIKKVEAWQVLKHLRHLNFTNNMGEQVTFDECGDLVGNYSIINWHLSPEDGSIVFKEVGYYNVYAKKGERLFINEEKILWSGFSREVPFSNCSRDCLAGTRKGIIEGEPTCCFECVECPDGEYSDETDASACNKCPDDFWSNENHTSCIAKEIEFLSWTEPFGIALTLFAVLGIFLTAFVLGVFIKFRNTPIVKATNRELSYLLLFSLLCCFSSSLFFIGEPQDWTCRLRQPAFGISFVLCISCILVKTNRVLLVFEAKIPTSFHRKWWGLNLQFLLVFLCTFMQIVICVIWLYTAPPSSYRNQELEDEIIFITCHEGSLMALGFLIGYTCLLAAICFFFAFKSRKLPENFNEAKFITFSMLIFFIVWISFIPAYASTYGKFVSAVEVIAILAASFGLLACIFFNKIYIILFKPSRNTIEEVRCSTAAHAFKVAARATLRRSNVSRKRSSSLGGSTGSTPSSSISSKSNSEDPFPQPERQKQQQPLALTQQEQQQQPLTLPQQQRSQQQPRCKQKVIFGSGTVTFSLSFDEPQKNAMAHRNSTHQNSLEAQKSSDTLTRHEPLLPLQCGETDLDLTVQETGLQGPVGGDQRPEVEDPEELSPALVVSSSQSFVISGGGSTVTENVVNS
As to the kind of experiment: Antagonist activity at calcium-sensing receptor expressed in HEK293 cells by FLIPR assay. It is filed as functional, cell-based.
With `COc1cc(-c2nc(NCc3ccc4c(c3)OCO4)ccc2C(=O)NCCOc2ccccc2)cc(OC)c1OC`, the IC50 (as a rule, the point on the concentration scale where inhibition reaches its midpoint) amounted to 0.13 µM. Turning to `COc1cc(-c2nc(NCc3ccccc3C)ncc2C(=O)NCCOc2ccccc2)cc(OC)c1OC`, the IC50 came to 10 µM. `COc1cc(-c2nc(NCc3ccccc3Cl)ncc2C(=O)NCCOc2ccccc2)cc(OC)c1OC`: the IC50 amounted to 4.9 µM.

In the case of `COc1cc(-c2nc(NCc3ccccc3)ncc2C(=O)NCCOc2ccccc2)cc(OC)c1OC`, the IC50 amounted to 0.73 µM.

On to `COc1cc(-c2nc(NCCC(C)C)ncc2C(=O)NCCOc2ccccc2)cc(OC)c1OC`, for which the IC50 is 2.2 µM. The same measure, in the same setting: to `COc1ccc(-c2nc(NCc3ccc4c(c3)OCO4)ncc2C(=O)NC(C)Cc2ccc(Cl)cc2)c(OC)n1` (stereo not drawn) belongs 0.15 µM.

In the case of `CCN(Cc1ccccc1)c1ccc(C(=O)NCCOc2ccccc2)c(-c2cc(OC)c(OC)c(OC)c2)n1`, the half-maximal inhibitory concentration (IC50) came out at 0.154 µM. `CCN(Cc1ccccc1)c1ccc(C(=O)NCCOc2ccccc2)c(-c2ccc(OC)nc2OC)n1`: the IC50 turned out to be 1.05 µM. The same measure, in the same setting: the same measure for `COc1cc(-c2nc(N[C@H](CO)Cc3ccccc3)ccc2C(=O)NCCOc2ccccc2)cc(OC)c1OC`: 0.076 µM; for `COc1ccc(-c2nc(NCc3ccc4c(c3)OCO4)ccc2C(=O)NCCOc2ccccc2)c(OC)n1`: 0.06 µM. With `COc1ccc(-c2nc(NCc3ccc4c(c3)OCO4)ncc2C(=O)N2CCc3ccccc3C2)c(OC)n1`, the IC50 turned out to be 0.36 µM. With `COc1ccc(-c2nc(NCc3ccc4c(c3)OCO4)ncc2C(=O)NCCOc2ccccc2)c(OC)n1`, the IC50 stood at 0.22 µM. For `COc1ccc(-c2nc(NCc3cccc(Cl)c3)ccc2C(=O)NCCOc2ccccc2)c(OC)n1`, the IC50 came to 0.197 µM.

For `COc1cc(OC)cc(-c2nc(N(C)Cc3ccccc3)ncc2C(=O)NCCOc2ccccc2)c1`, the IC50 was above 30 µM. As to `CCN(Cc1ccccc1)c1ncc(C(=O)NCCOc2ccccc2)c(-c2ccc(OC)nc2OC)n1`, the IC50 worked out at 0.36 µM. On to `CCN(Cc1ccccc1)c1ncc(C(=O)NCCCc2ccccc2)c(-c2cc(OC)c(OC)c(OC)c2)n1`, for which the concentration for half-maximal inhibition (IC50) amounted to 2.1 µM. Turning to `CCN(Cc1ccccc1)c1ncc(C(=O)NCCc2ccccc2)c(-c2cc(OC)c(OC)c(OC)c2)n1`, the IC50 was above 30 µM. With `COc1cc(-c2nc(N[C@@H](CO)Cc3ccccc3)ncc2C(=O)NCCOc2ccccc2)cc(OC)c1OC`, the IC50 is above 30 µM. The same measure, in the same setting: the same measure for `CN(Cc1ccccc1)c1ncc(C(=O)NCCOc2ccccc2)c(-c2ccc(C(F)(F)F)cc2)n1`: 18.9 µM.

As to `COc1ccc(-c2nc(N(C)Cc3ccccc3)ncc2C(=O)NCCOc2ccccc2)cc1`, the IC50 is above 30 µM. `COc1cccc(-c2nc(N(C)Cc3ccccc3)ncc2C(=O)NCCOc2ccccc2)c1`: the IC50 was above 30 µM. In the case of `COc1ccccc1-c1nc(N(C)Cc2ccccc2)ncc1C(=O)NCCOc1ccccc1`, the IC50 is above 30 µM. On the same count and under the same terms, to `CCN(Cc1ccccc1)c1ncc(C(=O)NCCOc2ccccc2)c(C2CCCCC2)n1` belongs above 30 µM; to `CCN(Cc1ccccc1)c1ncc(C(=O)NCCOc2ccccc2)c(-c2ccccc2)n1`, above 30 µM. Still for that read-out and setting: to `COc1ccc(-c2nc(N(C)Cc3ccccc3)ncc2C(=O)NCCOc2ccccc2)cc1OC` belongs 6.9 µM; to `COc1cc(-c2nc(NCc3ccccn3)ncc2C(=O)NCCOc2ccccc2)cc(OC)c1OC`, above 30 µM. Consider `COc1cccc(CNc2ncc(C(=O)NCCOc3ccccc3)c(-c3cc(OC)c(OC)c(OC)c3)n2)c1`, for which the IC50 came to 0.34 µM. Take `COc1cc(-c2nc(NCc3cccc(Cl)c3)ncc2C(=O)NCCOc2ccccc2)cc(OC)c1OC`: the IC50 came to 0.07 µM. For the compound `COc1cc(-c2nc(NCCc3cccnc3)ncc2C(=O)NCCOc2ccccc2)cc(OC)c1OC`, the IC50 is above 30 µM.

In the case of `COc1cc(-c2nc(NCCc3ccccn3)ncc2C(=O)NCCOc2ccccc2)cc(OC)c1OC`, the IC50 was above 30 µM. As for `COc1cccc(CCNc2ncc(C(=O)NCCOc3ccccc3)c(-c3cc(OC)c(OC)c(OC)c3)n2)c1`, the IC50 was found to be 1 µM. Turning to `COc1ccccc1CCNc1ncc(C(=O)NCCOc2ccccc2)c(-c2cc(OC)c(OC)c(OC)c2)n1`, the IC50 came to 0.34 µM. `COc1cc(-c2nc(N(C)CCc3ccccc3)ncc2C(=O)NCCOc2ccccc2)cc(OC)c1OC`: the IC50 stood at 1.5 µM. Regarding `COc1cc(-c2nc(NCCc3ccccc3)ncc2C(=O)NCCOc2ccccc2)cc(OC)c1OC`, the IC50 was determined as 0.4 µM. As to `COc1cc(-c2nc(N[C@H](CO)Cc3ccccc3)ncc2C(=O)NCCOc2ccccc2)cc(OC)c1OC`, the IC50 is 0.15 µM. Turning to `CCN(Cc1ccccc1)c1ncc(C(=O)NCCOc2ccccc2)c(-c2cc(OC)c(OC)c(OC)c2)n1`, the IC50 came out at 0.2 µM. `COc1cc(-c2nc(NCc3ccc4c(c3)OCO4)ncc2C(=O)NCCOc2ccccc2)cc(OC)c1OC`: the IC50 was 0.15 µM.

With `COc1cc(-c2nc(N(C)Cc3ccccc3)ncc2C(=O)NCCOc2ccccc2)cc(OC)c1OC`, the IC50 is 0.47 µM. As for `CCN(Cc1ccccc1)c1ncc(C(=O)NCCCCc2ccccc2)c(-c2cc(OC)c(OC)c(OC)c2)n1`, the IC50 was 1.8 µM.

Take `COc1cc(-c2nc(NCc3cccc(Cl)c3)ccc2C(=O)NCCOc2ccccc2)cc(OC)c1OC`: the IC50 is 0.162 µM. `COc1ccc(-c2nc(N[C@H](CO)Cc3ccccc3)ccc2C(=O)NCCOc2ccccc2)c(OC)n1`: the IC50 was 0.14 µM. As for `COc1cc(-c2nc(NCc3cccnc3)ncc2C(=O)NCCOc2ccccc2)cc(OC)c1OC`, the IC50 is above 30 µM. For `COc1ccc(CNc2ncc(C(=O)NCCOc3ccccc3)c(-c3cc(OC)c(OC)c(OC)c3)n2)cc1`, the IC50 was 3.1 µM. `COc1ccc(CCNc2ncc(C(=O)NCCOc3ccccc3)c(-c3cc(OC)c(OC)c(OC)c3)n2)cc1`: the IC50 came out at 2.8 µM.

Test system in another data set: not listed separately
Kind of data set: Aqueous solubility at pH 6.5. The class given is physicochemical.
In the case of `CCN(Cc1ccccc1)c1ncc(C(=O)NCCOc2ccccc2)c(-c2cc(OC)c(OC)c(OC)c2)n1`, the solubility – broadly, the concentration that dissolves in the medium under given conditions – was below 0.001 mg/mL.

`COc1ccc(-c2nc(N[C@H](CO)Cc3ccccc3)ccc2C(=O)NCCOc2ccccc2)c(OC)n1` yielded a solubility of 0.011 mg/mL (≈ 20.8 µM).

Test system in a further data set: not listed separately
As to the kind of experiment: Aqueous solubility at pH 4.5. It is filed as physicochemical.
`CCN(Cc1ccccc1)c1ncc(C(=O)NCCOc2ccccc2)c(-c2cc(OC)c(OC)c(OC)c2)n1` registered a solubility below 0.001 mg/mL.

For `COc1ccc(-c2nc(N[C@H](CO)Cc3ccccc3)ccc2C(=O)NCCOc2ccccc2)c(OC)n1`, the concentration in solution (solubility) came to 0.036 mg/mL (≈ 68.1 µM).
